# Laboratory results published in PubChem BioAssay AID493130 (Broad Institute, 2011).
# Records with an inconclusive call do not appear. The source made the active and inactive calls.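 Rule for the calls: active = signal-lowering compounds whose fitted half-maximal concentration is at most ten times their highest tested dose; inconclusive = flat fit between -30 and -70%, or poor fit; inactive = flat within 30%, signal rising, or potency beyond limit.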
# Target: POS-1 (Caenorhabditis elegans) binding to mex-3 RNA
# Test: inhibitors of POS-1/mex-3 RNA binding, dose response, counter-screen for MEX-5 RNA-binding inhibitor project, biochemical, fluorescence polarization, cherry-picked samples, set 2 (AID 493130);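 note: POS-1 as maltose binding protein fusion made in E. coli with FITC RNA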
# Settings: POS-1/mex-3 RNA fluorescence polarization, 1 h
row,SMILES,AC50
1,Cc1cccc(N2C(=O)NC(=O)/C(=C/c3cc4c(cc3[N+](=O)[O-])OCO4)C2=O)c1,2.94 µM
2,N=C1CCC(=N)c2c1c(O)c1ccccc1c2O,5.58 µM
3,Cc1occc1C(=O)N/N=C/C1=C(N2CCOCC2)C(=C\c2ccc(Cl)cc2Cl)/CC1,8.21 µM
4,CNC(=O)/C(C#N)=C/c1ccc(-c2nc3ccccc3s2)o1,3.91 µM
5,Cc1[nH][nH]c(=O)c1C(c1ccc(O)c([N+](=O)[O-])c1)c1c(C)[nH][nH]c1=O,7.84 µM
6,CCC(=O)Oc1ccc2c(c1)O/C(=C\c1ccco1)C2=O,5.63 µM
7,Cc1cccc(N=Nc2c(O)[nH]c3ccc(F)cc23)c1,1.87 µM
8,COc1ccccc1C(=O)Oc1ccc2c(c1)O/C(=C\c1ccncc1)C2=O,3.41 µM
9,COC(=O)c1cc2c(-c3ccccc3)c(C)c3ccccn3c-2c1C(=O)OC,> 10 µM (inactive)
10,CN1Cc2sc(N)c(C#N)c2CC1(C)C,9.75 µM
11,O=C1CSC(=S)N1/N=C/c1cc(Br)c(O)c(Br)c1,10.2 µM
12,O=C(N/N=C/c1c(O)n(Cc2ccccc2)c(=O)[nH]c1=O)c1ccccc1O,4.84 µM
13,CCN1/C(=C2\SC(=S)N(Cc3ccccc3)C2=O)Sc2ccccc21,1.6 µM
14,Cc1cc(=O)n2[nH]c(=O)c(N=Nc3ccccc3)c2[nH]1,0.306 µM

# Same assay, conditions: POS-1/mex-3 RNA fluorescence polarization, 1 h; at 10 µM (top of the series)
row,SMILES,"activity change, negative = inhibition"
1,Cc1cccc(CS(=O)(=O)c2nnc([C@H](Cc3ccccc3)NC(=O)OC(C)(C)C)o2)c1,inactive
2,O=C(O)c1ccc(NC2=C(Cl)C(=O)c3ccccc3C2=O)cc1,inactive
3,COc1ccc(N=C2S/C(=C\c3cc(C)n(C)c3C)C(=O)N2C)cc1,inactive
4,NC1=NC(=O)/C(=C\c2ccc(O)c([N+](=O)[O-])c2)S1,inactive
5,CC(=O)Nc1ccc(S(=O)(=O)/N=C2/NC(=O)/C(=C\c3ccco3)S2)cc1,inactive
6,CCOC(=O)c1cc(-c2ccccc2)sc1NC(=S)Nc1cccc(C)n1,inactive
7,COc1nc(N/N=C/c2ccc(-c3ccccc3[N+](=O)[O-])o2)nc(N2CCOCC2)n1,inactive
8,CCc1ccc(N2C(=O)NC(=O)/C(=C\c3cccn3CCOc3ccc(C(C)C)cc3)C2=O)cc1,inactive
9,Cn1ncc2c(NNC(=O)c3ccc(Cl)cc3Cl)ncnc21,inactive
10,Cc1ccc(S(=O)(=O)c2cc3c(=O)n4ccccc4nc3n(Cc3ccco3)c2=N)cc1C,inactive
11,Cc1cc(C)c2cc3c(N)c(C(=O)N4CCc5ccccc5C4)sc3nc2c1,inactive
12,O=[N+]([O-])c1cc([N+](=O)[O-])c2cccnc2c1Oc1ccccc1O,inactive
13,O=c1c2ccccc2nc(/C=C/c2ccc([N+](=O)[O-])cc2)n1CCCO,inactive
14,CCc1nc2ccccc2c(=O)n1/N=C/c1ccc(OC)cc1,inactive
15,Cc1c(C#N)c(O)n(CCO)c(=O)c1N=Nc1ccccc1,inactive
16,CCOC(=O)Cc1csc(NC(=O)c2sc3nc4c(C)cc(C)cc4cc3c2N)n1,inactive
17,Cc1cccc2c(N=Nc3ccccc3)c(O)[nH]c12,inactive
18,Cc1nc2c(N=Nc3ccccc3F)c(N)nn2c(N)c1C#N,inactive
19,CSc1ccc(/C=C/C(=O)c2ccc(NC(C)=O)cc2)cc1,inactive
20,Cc1ccc(C(=O)N/N=C\c2cc(Br)c(Br)o2)cn1,inactive
21,CS(=O)(=O)c1nsc2nc(=O)c(/C=C3\C=Nc4ccccc43)c(N)n12,inactive
22,CCOC(=O)C1Cc2ccccc2C(=O)O1 (stereo not drawn),inactive
23,COC(=O)c1ccc(-c2ccc(C(c3c(C)[nH][nH]c3=O)c3c(C)[nH][nH]c3=O)o2)cc1,inactive

row,SMILES,"activity change, negative = inhibition"
1,Cc1ccc(/C=C2/NC(=O)N(Cc3ccccc3)C2=O)s1,inactive
2,CC[N+](C)(CC)CCCOC(=O)C(O)(c1ccccc1)C1CCCCC1 (stereo not drawn),inactive
3,N=C1C(c2nc3ccccc3[nH]2)=C(O)CN1c1ccccc1,inactive
4,CC1=C/C(=C(/c2cc(C)c(O)c(Br)c2)c2ccccc2S(=O)(=O)O)C=C(Br)C1=O,inactive
5,CC1=CC2=NC(=O)/C(=C\c3ccc(-c4cccc(Cl)c4)o3)C(=N)N2O1,inactive
6,COc1ccccc1CN1CC(C(=O)NCCN(C)CCc2ccccc2)CCC1=O (stereo not drawn),inactive
7,COc1ccc(NC(=S)NNC(=O)C(C)n2nc(C)c([N+](=O)[O-])c2C)cc1 (stereo not drawn),inactive
8,Cn1c(=O)c2c(nc(NN=C3CCCCC3)n2C)n(C)c1=O,inactive
9,COC(=O)c1cccc2nc3c(C(C)O)cccc3nc12 (stereo not drawn),inactive
10,CC(=O)Nc1ccc(/C=N\NC(=O)CNS(=O)(=O)c2ccc([N+](=O)[O-])cc2)cc1,inactive
11,CC(=Nc1ccc(C)cc1C)c1sc2ccccc2c1O,inactive
12,NS(=O)(=O)c1ccc(N=Nc2ccc(=O)[nH]c2O)cc1,inactive
13,O=c1cc[nH]c2c1ccc1c(=O)cc[nH]c12,inactive
14,COc1ccc(NCc2cccnc2)cc1,inactive
15,CCOc1ccccc1C1NC(=O)NC(C)=C1C(=O)OCc1ccccc1 (stereo not drawn),inactive
16,CN(C)c1ccc(N=Cc2nc(-c3ccccc3)oc2OC(=O)c2cccc(Br)c2)cc1,inactive
17,Cn1ccc(=Nc2ccc(NC(=O)c3ccc(N=c4ccn(C)c5ccc([N+](=O)[O-])cc45)cc3)cc2)cc1,inactive
18,CC(C)OC(=O)c1c2c(n3ccccc13)C(=O)c1ccccc1C2=O,inactive
19,COc1cccc(/C=N/NC(=O)N/N=C/c2cccc(OC)c2O)c1O,inactive
20,O=C(NC1CCSc2ccccc21)c1ccccc1Br (stereo not drawn),inactive
21,Cn1c(O)c(N=Nc2ccc(F)cc2)c2ccccc21,inactive
22,COc1cccc(NC(=S)NNC(=O)C(C)n2nc(C)c([N+](=O)[O-])c2C)c1 (stereo not drawn),inactive
23,CC(C)CN1CCN(Cc2cccc3ncccc23)CC1CCO (stereo not drawn),inactive

row,SMILES,"activity change, negative = inhibition"
1,CN1CCN(c2nc(-c3ccccc3)nc(-c3ccccc3)c2C#N)CC1,inactive
2,CN1CN(C)c2cccc3cccc1c23,inactive
3,CCOC(=O)C1(C)/C(=N/Nc2cccc(Cl)c2)C(=O)C(=O)N1c1ccccc1 (stereo not drawn),inactive
4,COc1ccc(C(CC(=O)N2CCCC2)c2c(OC)cc(OC)c3ccc(=O)oc23)cc1 (stereo not drawn),inactive
5,O=C1/C(=C\c2ccc(Br)cc2)SC(=S)N1NS(=O)(=O)c1ccccc1,inactive
6,N=c1c(C(=O)NC2CCCC2)cc2c(=O)n3ccccc3nc2n1C1CCCC1,inactive
7,COc1ccccc1-c1cn[nH]c1-c1ccc(O)cc1O,inactive
8,O=c1[nH]cnc2c1C(c1ccccc1)c1c(nc[nH]c1=O)O2,inactive
9,N#Cc1cc2c(=O)n3ccccc3nc2n(CCCN2CCOCC2)c1=O,inactive
10,O=[N+]([O-])c1ccc(-c2cn3nc(-c4ccccc4)c(-c4ccccc4)nc3n2)cc1,inactive
11,COc1ccc2ccccc2c1CNCc1ccccn1,inactive
12,O=[As](O)(O)c1ccc(N=Nc2ccc(O)cc2)cc1,inactive
13,CCCn1c(=N)c(C(=O)NC2CCCC2)cc2c(=O)n3cccc(C)c3nc21,inactive
14,COc1cc(/C=N/NC(=O)c2ccc(=O)[nH]n2)ccc1O,inactive
15,Cc1ccc(C(=O)N/C(=C\c2ccc(-c3ccc([N+](=O)[O-])cc3)o2)C(=O)NC2CCS(=O)(=O)C2)cc1 (stereo not drawn),inactive
16,CCN(CC)c1ccc(C(=O)N/N=C(\C)c2cccnc2)cc1,inactive
17,CSCCCN1CCC(n2nccc2NC(=O)CCCc2ccccc2)CC1,inactive
18,COc1ccc(NC(=O)c2sc3nc(Cc4ccccc4)cc(C(F)(F)F)c3c2N)cc1OC,inactive
19,NC1=C([N+](=O)[O-])C(c2ccc3c(c2)OCO3)C2=C(CCCC2=O)O1 (stereo not drawn),inactive
20,Cc1cc(=O)[nH]c(SCc2nc3ccc([N+](=O)[O-])cc3[nH]2)n1,inactive
21,C=CCn1c(Cc2nc3ccc(Cl)cc3[nH]2)n[nH]c1=S,inactive
22,O=C(NNS(=O)(=O)c1ccc(F)cc1)c1cnccn1,inactive
23,O=C1c2cccc3c(Cl)ccc(c23)C(=O)N1O,inactive
